Assays:
[1] = system: Mycosphaerella arachidis (Cercospora arachidicola); assay: Example B13: Mycosphaerella arachidis (Cercospora arachidicola)/Liquid Culture (Early Leaf Spot); type: cell-based; details: liquid culture, photometrically 4 to 5 days after application, read-out: control of Mycosphaerella arachidis
Protocol: Example B13: Mycosphaerella arachidis (Cercospora arachidicola)/Liquid Culture (Early Leaf Spot)
(§1) Conidia of the fungus from cryogenic storage are directly mixed into nutrient broth (PDB potato dextrose broth). After placing a (DMSO) solution of test compound into a microtiter plate (96-well format), the nutrient broth containing the fungal spores is added. The test plates are incubated at 24° C. and the inhibition of growth is determined photometrically 4 to 5 days after application.

[2] = system: Gibberella zeae (Fusarium graminearum); type: in vivo; details: 200 ppm; wheat spikelets, preventative, inoculated one day after application
[3] = system: Monographella nivalis (Microdochium nivale); assay: Example B12: Monographella nivalis (Microdochium nivale)/Liquid Culture (Foot Rot Cereals); type: cell-based; details: liquid culture, photometrically 4 to 5 days after application, read-out: control of Monographella nivalis
Protocol: Example B12: Monographella nivalis (Microdochium nivale)/Liquid Culture (Foot Rot Cereals)
as §1

Alternaria solani = assay: Example B1: Alternaria solani/Tomato/Leaf Disc (Early Blight); type: in vivo; details: foliar, tomato leaf disks, inoculated 2 days after application, compared to untreated control
Protocol: Example B1: Alternaria solani/Tomato/Leaf Disc (Early Blight)
Tomato leaf disks cv. Baby are placed on agar in multiwell plates (24-well format) and sprayed with the formulated test compound diluted in water. The leaf disks are inoculated with a spore suspension of the fungus 2 days after application. The inoculated leaf disks are incubated at 23° C./21° C. (day/night) and 80% rh under a light regime of 12/12 h (light/dark) in a climate cabinet and the activity of a compound is assessed as percent disease control compared to untreated when an appropriate level of disease damage appears on untreated check leaf disks (5-7 days after application).

[4] = system: Phaeosphaeria nodorum (Septoria nodorum); assay: Example B11: Phaeosphaeria nodorum (Septoria nodorum)/Wheat/Leaf Disc Preventative (Glume Blotch); type: in vivo; details: Parastagonospora nodorum, foliar, wheat leaf segments, inoculated 2 days after application
Protocol: Example B11: Phaeosphaeria nodorum (Septoria nodorum)/Wheat/Leaf Disc Preventative (Glume Blotch)
(§2) Wheat leaf segments cv. Kanzler are placed on agar in a multiwell plate (24-well format) and sprayed with the formulated test compound diluted in water. The leaf disks are inoculated with a spore suspension of the fungus 2 days after application. The inoculated test leaf disks are incubated at 20° C. and 75% rh under a light regime of 12 h light/12 h darkness in a climate cabinet and the activity of a compound is assessed as percent disease control compared to untreated when an appropriate level of disease damage appears in untreated check leaf disks (5-7 days after application).

[5] = system: Mycosphaerella graminicola (Septoria tritici); assay: Example B21: Mycosphaerella graminicola (Septoria tritici)/Liquid Culture (Septoria Blotch); type: cell-based; details: Zymoseptoria tritici, liquid culture, photometrically 4-5 days after application, read-out: control of Mycosphaerella graminicola
Protocol: Example B21: Mycosphaerella graminicola (Septoria tritici)/Liquid Culture (Septoria Blotch)
as §1, with “4-5” for “4 to 5”

Pyrenophora teres = assay: Example B18: Pyrenophora teres/Barley/Leaf Disc Preventative (Net Blotch); type: in vivo; details: foliar, barley leaf segments, inoculated 2 days after application
Protocol: Example B18: Pyrenophora teres/Barley/Leaf Disc Preventative (Net Blotch)
as §2, with “Barley” for “Wheat”, “Hasso” for “Kanzler”, “segments” for “disks”, “inoculated” for “inoculated test”, “65%” for “75%”, “as” for “as percent”

Fusarium culmorum = type: in vivo; details: 200 ppm; wheat spikelets, preventative, inoculated 1 day after application
[6] = system: Botryotinia fuckeliana (Botrytis cinerea); assay: Example B2: Botryotinia fuckeliana (Botrytis cinerea)/Liquid Culture (Gray Mould); type: cell-based; details: liquid culture, growth inhibition photometrically 3 to 4 days after application, read-out: control of Botryotinia fuckeliana
Protocol: Example B2: Botryotinia fuceliana (Botrytis cinerea)/Liquid Culture (Gray Mould)
as §1, with “(Vogels” for “(PDB potato dextrose”, “photometrically 3 to” for “photometrically”, “4” for “4 to 5”

[7] = system: Glomerella lagenarium (Colletotrichum lagenarium); assay: Example B5: Glomerella lagenarium (Colletotrichum lagenarium)/Liquid Culture (Anthracnose); type: cell-based; details: Colletotrichum orbiculare, liquid culture, photometrically 3 to 4 days after application, read-out: control of Glomerella lagenarium
Protocol: Example B5: Glomerella lagenarium (Colletotrichum lagenarium)/Liquid Culture (Anthracnose)
as §1, with “measured” for “determined”, “photometrically 3 to” for “photometrically”, “4” for “4 to 5”

[8] = Comparison of fungicidal activity of the separated stereoisomers (peaks 1 to 4); details: SFC-separated stereoisomers of Example P3
[9] = system: Magnaporthe grisea (Pyricularia oryzae); type: in vivo; details: 200 ppm; rice leaf segments, preventative, inoculated 2 days after application
[10] = system: Puccinia recondita f. sp. tritici; assay: Example B16: Puccinia recondita f. sp. tritici/Wheat/Leaf Disc Preventative (Brown Rust); type: in vivo; details: 200 ppm, wheat leaf segments, inoculated 1 day after application
Protocol: Example B16: Puccinia recondita f. sp. tritici/Wheat/Leaf Disc Preventative (Brown Rust)
Wheat leaf segments cv. Kanzler are placed on agar in multiwell plates (24-well format) and sprayed with the formulated test compound diluted in water. The leaf disks are inoculated with a spore suspension of the fungus 1 day after application. The inoculated leaf segments are incubated at 19° C. and 75% rh under a light regime of 12 h light/12 h darkness in a climate cabinet and the activity of a compound is assessed as percent disease control compared to untreated when an appropriate level of disease damage appears in untreated check leaf segments (7-9 days after application).

[11] = system: Thanatephorus cucumeris (Rhizoctonia solani); assay: Example B19: Thanatephorus cucumeris (Rhizoctonia solani)/Liquid Culture (Foot Rot, Damping-Off); type: cell-based; details: 20 ppm; liquid culture, photometrically 3-4 days after application
Protocol: Example B19: Thanatephorus cucumeris (Rhizoctonia solani)/Liquid Culture (Foot Rot, Damping-Off)
Mycelia fragments of a newly grown liquid culture of the fungus are directly mixed into nutrient broth (PDB potato dextrose broth). After placing a (DMSO) solution of the test compounds into a microtiter plate (96-well format), the nutrient broth containing the fungal material is added. The test plates are incubated at 24° C. and the inhibition of growth is determined photometrically 3-4 days after application.

Plasmopara viticola = type: in vivo; details: 200 ppm; grape vine leaf disks, preventative, inoculated 1 day after application

SMILES | inhibition of growth at 20 ppm [1] [%] | control of Gibberella zeae [2] | inhibition of growth at 20 ppm [3] [%] | pest or weed control at 200 ppm (Alternaria solani) [%] | pest or weed control at 200 ppm [4] [%] | inhibition of growth at 20 ppm [5] [%] | pest or weed control at 200 ppm (Pyrenophora teres) [%] | control of Fusarium culmorum (Fusarium culmorum) | inhibition of growth at 20 ppm [6] [%] | inhibition of growth at 20 ppm [7] [%] | fungicidal activity compared with the other enantiomer [8] | control of Magnaporthe grisea [9] | control of Puccinia recondita f. sp. tritici [10] | control of Thanatephorus cucumeris [11] | control of Plasmopara viticola (Plasmopara viticola)
Cc1c([C@H]2CN(C(=O)c3cc(-c4ncc(F)cc4F)on3)[C@@H](C)c3ccccc32)cnn1C (racemic) [X.21, [5-(3,5-difluoro-2-pyridyl)isoxazol-3-yl]-[rac-(1S,4S)-4-(1,5-dimethylpyrazol-4-yl)-1-methyl-3,4-dihydro-1H-isoquinolin-2-yl]methanone] | ≥ 80 | at least 80% | ≥ 80 | ≥ 80 | ≥ 80 | ≥ 80 | ≥ 80 | at least 80% | ≥ 80 | ≥ 80 | – | – | – | – | –
C[C@H]1c2ccccc2[C@@](C)(c2cnn(C)c2)CN1C(=O)c1cc(-c2ccc(F)cc2F)on1 (single isomer, unassigned) [X.22] | – | – | – | – | – | – | – | – | – | – | more fungicidally active than the compound of peak 3 | – | – | – | –
C[C@@H]1c2ccccc2[C@@](C)(c2cnn(C)c2)CN1C(=O)c1cc(-c2ccc(F)cc2F)on1 (single isomer, unassigned) [peak 1] | – | – | – | – | – | – | – | – | – | – | more fungicidally active than the compound of peak 2 | – | – | – | –
Cc1c(C2CN(C(=O)c3nc(-c4ccc(F)cc4F)no3)Cc3ccccc32)cnn1C (stereo not shown) [X.02, [3-(2,4-difluorophenyl)-1,2,4-oxadiazol-5-yl]-[4-(1,5-dimethylpyrazol-4-yl)-3,4-dihydro-1H-isoquinolin-2-yl]methanone] | ≥ 80 | – | ≥ 80 | ≥ 80 | ≥ 80 | ≥ 80 | – | – | ≥ 80 | ≥ 80 | – | – | – | – | –
Cn1cc(C2c3ccccc3CN(C(=O)c3cc(-c4ccc(F)cc4F)on3)C2(C)C)cn1 (stereo not shown) [X.13, [5-(2,4-difluorophenyl)isoxazol-3-yl]-[3,3-dimethyl-4-(1-methylpyrazol-4-yl)-1,4-dihydroisoquinolin-2-yl]methanone] | ≥ 80 | – | ≥ 80 | – | ≥ 80 | ≥ 80 | ≥ 80 | – | ≥ 80 | ≥ 80 | – | – | – | – | –
Cn1cc(C2(C)CN(C(=O)c3cc(-c4ccc(F)cc4F)on3)Cc3ccccc32)cn1 (stereo not shown) [X.14, [5-(2,4-difluorophenyl)isoxazol-3-yl]-[4-methyl-4-(1-methylpyrazol-4-yl)-1,3-dihydroisoquinolin-2-yl]methanone] | ≥ 80 | – | ≥ 80 | – | ≥ 80 | ≥ 80 | ≥ 80 | – | ≥ 80 | ≥ 80 | – | – | – | – | –
Cc1c(C2CN(C(=O)c3cc(-c4ccc(F)cc4F)on3)Cc3ccccc32)cnn1C (stereo not shown) [X.16, [5-(2,4-difluorophenyl)isoxazol-3-yl]-[4-(1,5-dimethylpyrazol-4-yl)-3,4-dihydro-1H-isoquinolin-2-yl]methanone] | ≥ 80 | – | ≥ 80 | – | ≥ 80 | ≥ 80 | ≥ 80 | – | ≥ 80 | ≥ 80 | – | at least 80% | at least 80% | at least 80% | –
Cn1cc(C2CN(C(=O)c3noc(-c4ccccc4)n3)Cc3ccccc32)cn1 (stereo not shown) [X.17, [4-(1-methylpyrazol-4-yl)-3,4-dihydro-1H-isoquinolin-2-yl]-(5-phenyl-1,2,4-oxadiazol-3-yl)methanone] | ≥ 80 | – | ≥ 80 | – | ≥ 80 | ≥ 80 | – | – | ≥ 80 | – | – | – | – | – | at least 80%

— patent US20260198498A1, “FUNGICIDAL COMPOSITIONS” (SYNGENTA CROP PROTECTION AG, priority 2022, published 2026)
